Patent publication US4892887A, “N,N'-bis(sulfonyl)hydrazines having antineoplastic activity” (Yale University, priority 1988, dated 1990)
Like-named read-outs stand apart in the source and are kept apart here.

Experiments:
B16 melanoma = test: Survival time of mice bearing the B16 melanoma; type: in vivo, mouse (C57B1 mice); conditions: for Max. % T/C: Table IV, B16, at optimum effective daily dose; for Av. Change in wt., %: at optimum effective daily dose, B16 mice; for Max. % T/C B16 Melanoma: Table V
Method: This tumor was propagated in C57B1mice. Transplantation was carried out by removing tumors from donor mice bearing 14-day subcutaneous tumor growths. The tissue was fragmented to make a well-dispersed cellular suspension and diluted with Fischer's medium without serum so that one gram of tissue was suspended in 5 ml of solution. A portion (0.2 ml) of the resulting cell suspension was injected intraperitoneally into each recipient animal. All compounds were administered over a wide range of dosage levels by intraperitoneal injection, beginning 24 hours after tumor implantation, once daily for 6 consecutive days. The test compounds were injected as fine suspensions following homogenization in 2 to 3 drops of 20% aqueous Tween 80 and then made up to volume with isotonic saline. […] Mice were weighed during the course of the experiments, and the percent change in body weight from onset to termination of therapy was used as an indication of drug toxicity. Determination of the sensitivity of neoplasms to these agents was based on the prolongation of survival time afforded by the drug treatments.
^a Administered once daily for six consecutive days, beginnign 24
hours after tumor transplanation, with 5 animals being used per group.
^b Average change in body weight from onset to termination of therapy
^c % T/C = average survival time of treated/control animals ×
100. Each value represents the average of 5 animals per group.

[1] = Alkylation of 4-(4-nitrobenzyl)pyridine, absorbance at 540 nm (modified Wheeler and Chumley); conditions: for Relative Alkylating Activity: (O.D. test sample/O.D. compound 8) × 100, pH 7.4, 37°C, 540 nm; for absorbance at 540 nm (alkylating activity): comparison compounds
Method: Since compounds 1-13 were conceived as prodrugs of the alkylating species (II), representative compounds of this class, viz. 1-6, 8 and 10 were tested for alkylating ability using a modification of the method of Wheeler and Chumley. This method measured the absorbance at 540 nm of the alkylated product of 4-(4-nitrobenzyl)pyridine.
^a A solution of the test sample (12 micromoles) in 1 ml of acetone,
ml of distilled water and 1 ml of TrisHCl buffer (pH 7.4) was incubated
with 4(4-nitrobenzyl) pyridine (148 micromoles in 0.4 ml of acetone) for
hr at 37°C. Following additon of 2 ml of acetone and 1.5 ml of 0.2
M NaOH, the material was extracted with 5 ml of ethyl acetate. The
absorbance was determined at 540 nm 30 seconds after the addition of the
sodium hydroxide solution. The greater the absorbance value, the greater
the degree of alkylation
^b Relative Alkylating activity = (O.D. for test sample/O.D. for […]

L1210 leukemia = test: Survival time of mice bearing the L1210 leukemia; type: in vivo, mouse (CDF-1 mice); conditions: for Av. Change wt. %: L1210 mice; for response vs control in vivo at 50 mg/kg / response vs control in vivo at 100 mg/kg / response vs control in vivo at 150 mg/kg: Mus musculus, read-out: % T/C; for Antineoplastic Activity (max. % T/C from Table III): Table II, L1210 leukemia; for activity against the L1210 leukemia (in words): mouse, in vivo; for Max. % T/C L1210 Leukemia: Table V; for maximum % T/C, L1210 leukemia: comparison compounds
Text: The ascites cell forms of the L1210 leukemia, Sarcoma 180 and P388 leukemia were propagated in CDF-1 mice. […] Mice were weighed during the course of the experiments, and the percentage change in body weight from the onset to termination of therapy was used as an indication of host toxicity.
Each value represents the average of 5 animals per group.

[2] = 50 mg/kg once daily for six days
[3] = 100 mg/kg once daily for six days
[4] = 150 mg/kg once daily for six days
[5] = 144 h, 50 mg/kg once daily for six days, L1210
[6] = 144 h, 100 mg/kg once daily for six days, L1210
[7] = 144 h, 150 mg/kg once daily for six days, L1210

Cc1ccc(S(=O)(=O)N(C)NS(=O)(=O)c2ccccc2)cc1 [Compound 1, N'-benzenesulfonyl-N-methyl-N-(p-toluenesulfonyl)hydrazine]
Max. % T/C (B16 melanoma): 168 % T/C | Av. Change in wt., % (B16 melanoma): +8.5% | Relative Alkylating Activity [1]: 118 | Average Survival Time of Treated Animals, days ± SE (L1210 leukemia; [2]): 15.0 ± 1.4 days | Av. Change wt. % (L1210 leukemia; [2]): +2.0% | Average Survival Time of Treated Animals, days ± SE (L1210 leukemia; [3]): 10.6 ± 0.2 days | Av. Change wt. % (L1210 leukemia; [3]): +5.4% | Average Survival Time of Treated Animals, days ± SE (L1210 leukemia; [4]): 10.8 ± 0.5 days | Av. Change wt. % (L1210 leukemia; [4]): -2.7% | response vs control in vivo at 50 mg/kg (L1210 leukemia; [5]): 163% | response vs control in vivo at 100 mg/kg (L1210 leukemia; [6]): 115% | response vs control in vivo at 150 mg/kg (L1210 leukemia; [7]): 117% | Antineoplastic Activity (max. % T/C from Table III) (L1210 leukemia): 163 % T/C

COc1ccc(S(=O)(=O)NN(C)S(=O)(=O)c2ccc(C)cc2)cc1 [Compound 2, N'-(p-methoxybenzenesulfonyl)-N-methyl-N-(p-toluenesulfonyl)hydrazine]
Max. % T/C (B16 melanoma): 200 % T/C | Av. Change in wt., % (B16 melanoma): +9.1% | Relative Alkylating Activity [1]: 95 | Average Survival Time of Treated Animals, days ± SE (L1210 leukemia; [2]): 10.8 ± 0.6 days | Av. Change wt. % (L1210 leukemia; [2]): +7.7% | Average Survival Time of Treated Animals, days ± SE (L1210 leukemia; [3]): 15.0 ± 2.3 days | Av. Change wt. % (L1210 leukemia; [3]): +7.8% | Average Survival Time of Treated Animals, days ± SE (L1210 leukemia; [4]): 13.2 ± 2.2 days | Av. Change wt. % (L1210 leukemia; [4]): +2.9% | response vs control in vivo at 50 mg/kg (L1210 leukemia; [5]): 117% | response vs control in vivo at 100 mg/kg (L1210 leukemia; [6]): 163% | response vs control in vivo at 150 mg/kg (L1210 leukemia; [7]): 143% | Antineoplastic Activity (max. % T/C from Table III) (L1210 leukemia): 163 % T/C

Cc1ccc(S(=O)(=O)N(C)NS(=O)(=O)c2ccc(Cl)cc2)cc1 [Compound 3, N'-(p-chlorobenzenesulfonyl)-N-methyl-N-(p-toluenesulfonyl)hydrazine]
Max. % T/C (B16 melanoma): 171 % T/C | Av. Change in wt., % (B16 melanoma): +2.9% | rate of decomposition to a reactive species (in words) [1]: decomposed less rapidly than compound 10 | Relative Alkylating Activity [1]: 135 | Average Survival Time of Treated Animals, days ± SE (L1210 leukemia; [2]): 17.4 ± 1.4 days | Av. Change wt. % (L1210 leukemia; [2]): +3.7% | Average Survival Time of Treated Animals, days ± SE (L1210 leukemia; [3]): 10.8 ± 0.6 days | Av. Change wt. % (L1210 leukemia; [3]): +10.0% | Average Survival Time of Treated Animals, days ± SE (L1210 leukemia; [4]): 11.2 ± 1.3 days | Av. Change wt. % (L1210 leukemia; [4]): +6.0% | response vs control in vivo at 100 mg/kg (L1210 leukemia; [6]): 117% | response vs control in vivo at 150 mg/kg (L1210 leukemia; [7]): 122% | response vs control in vivo at 50 mg/kg (L1210 leukemia; L1210, 144 h): 189% | Antineoplastic Activity (max. % T/C from Table III) (L1210 leukemia): 189 % T/C | activity against the L1210 leukemia (in words) (L1210 leukemia): active against the L1210 leukemia

COc1ccc(S(=O)(=O)N(C)NS(=O)(=O)c2ccc(C)cc2)cc1 [Compound 4]
Max. % T/C (B16 melanoma): 151 % T/C | Av. Change in wt., % (B16 melanoma): -14.0% | alkylating activity / absorbance (in words) [1]: lowest | Relative Alkylating Activity [1]: 82 | Average Survival Time of Treated Animals, days ± SE (L1210 leukemia; [2]): 10.2 ± 0.5 days | Av. Change wt. % (L1210 leukemia; [2]): +12.6% | Average Survival Time of Treated Animals, days ± SE (L1210 leukemia; [3]): 10.2 ± 0.2 days | Av. Change wt. % (L1210 leukemia; [3]): +14.8% | Average Survival Time of Treated Animals, days ± SE (L1210 leukemia; [4]): 10.4 ± 0.2 days | Av. Change wt. % (L1210 leukemia; [4]): +9.8% | response vs control in vivo at 50 mg/kg (L1210 leukemia; [5]): 111% | response vs control in vivo at 100 mg/kg (L1210 leukemia; [6]): 111% | response vs control in vivo at 150 mg/kg (L1210 leukemia; [7]): 113% | Antineoplastic Activity (max. % T/C from Table III) (L1210 leukemia): 113 % T/C | activity against the L1210 leukemia (in words) (L1210 leukemia): virtually inactive

Cc1ccc(S(=O)(=O)NN(C)S(=O)(=O)c2ccc(Cl)cc2)cc1 [Compound 5, N-(p-chlorobenzenesulfonyl)-N-methyl-N'-(p-toluenesulfonyl)hydrazine]
Max. % T/C (B16 melanoma): 162 % T/C | Av. Change in wt., % (B16 melanoma): -0.4% | rate of decomposition to a reactive species (in words) [1]: decomposed less rapidly than compound 10 | Relative Alkylating Activity [1]: 169 | Average Survival Time of Treated Animals, days ± SE (L1210 leukemia; [2]): 10.4 ± 0.4 days | Av. Change wt. % (L1210 leukemia; [2]): +5.1% | Average Survival Time of Treated Animals, days ± SE (L1210 leukemia; [3]): 13.0 ± 2.2 days | Av. Change wt. % (L1210 leukemia; [3]): +5.5% | Average Survival Time of Treated Animals, days ± SE (L1210 leukemia; [4]): 10.0 ± 0.3 days | Av. Change wt. % (L1210 leukemia; [4]): -4.6% | response vs control in vivo at 50 mg/kg (L1210 leukemia; [5]): 113% | response vs control in vivo at 100 mg/kg (L1210 leukemia; [6]): 141% | response vs control in vivo at 150 mg/kg (L1210 leukemia; [7]): 109% | Antineoplastic Activity (max. % T/C from Table III) (L1210 leukemia): 141 % T/C | activity against the L1210 leukemia (in words) (L1210 leukemia): active against the L1210 leukemia

CN(NS(=O)(=O)c1ccc2ccccc2c1)S(=O)(=O)c1ccc(Cl)cc1 [Compound 33, N-(p-chlorobenzenesulfonyl)-N-methyl-N'-(2-naphthalenesulfonyl)hydrazine]
Max. % T/C B16 Melanoma (B16 melanoma): 153 % T/C | Max. % T/C L1210 Leukemia (L1210 leukemia): 109 % T/C

CN(NS(C)(=O)=O)S(=O)(=O)c1ccc(Cl)cc1 [Compound 35, N-(p-chlorobenzenesulfonyl)-N'-methanesulfonyl-N-methylhydrazine]
Max. % T/C B16 Melanoma (B16 melanoma): 194 % T/C | Max. % T/C L1210 Leukemia (L1210 leukemia): 167 % T/C

COc1ccc(S(=O)(=O)NN(C)S(=O)(=O)c2ccc(Br)cc2)cc1 [Compound 39, N-(p-bromobenzenesulfonyl)-N'-(p-methoxybenzene-sulfonyl)-N-methylhydrazine]
Max. % T/C B16 Melanoma (B16 melanoma): 167 % T/C | Max. % T/C L1210 Leukemia (L1210 leukemia): 165 % T/C

CN(NS(=O)(=O)c1ccc(Br)cc1)S(=O)(=O)c1ccc(Br)cc1 [Compound 41, N,N'-bis(p-bromobenzenesulfonyl)-N-methylhydrazine]
Max. % T/C B16 Melanoma (B16 melanoma): 161 % T/C | Max. % T/C L1210 Leukemia (L1210 leukemia): 183 % T/C

CN(NS(=O)(=O)c1ccccc1)S(=O)(=O)c1ccc2ccccc2c1 [Compound 45, N'-benzenesulfonyl-N-methyl-N-(2naphthalenesulfonyl)hydrazine]
Max. % T/C B16 Melanoma (B16 melanoma): 163 % T/C | Max. % T/C L1210 Leukemia (L1210 leukemia): 106 % T/C

CN(NS(=O)(=O)c1ccccc1)S(=O)(=O)Cc1ccccc1 [Compound 49, N'-benzenesulfonyl-N-benzylsulfonyl-N-methylhydrazine]
Max. % T/C B16 Melanoma (B16 melanoma): 208 % T/C | Max. % T/C L1210 Leukemia (L1210 leukemia): 185 % T/C

Cc1ccc(S(=O)(=O)NN(C)S(=O)(=O)Cc2ccccc2)cc1 [Compound 50]
Max. % T/C B16 Melanoma (B16 melanoma): 206 % T/C | Max. % T/C L1210 Leukemia (L1210 leukemia): 144 % T/C

CN(NS(=O)(=O)c1ccc(Cl)cc1)S(=O)(=O)Cc1ccccc1 [Compound 52]
Max. % T/C B16 Melanoma (B16 melanoma): 184 % T/C | Max. % T/C L1210 Leukemia (L1210 leukemia): 128 % T/C

Cc1ccc(S(=O)(=O)NN(C)S(=O)(=O)c2ccc(I)cc2)cc1 [Compound 59]
Max. % T/C B16 Melanoma (B16 melanoma): 176 % T/C | Max. % T/C L1210 Leukemia (L1210 leukemia): 123 % T/C

O=S(=O)(NNS(=O)(=O)c1ccccc1)c1ccccc1 [N,N'-bis(benzenesulfonyl )hydrazine, reference compound]
alkylating activity / absorbance (in words) [1]: negligible alkylating activity | absorbance at 540 nm (alkylating activity) [1]: 0 | maximum % T/C, L1210 leukemia (L1210 leukemia): 101 % T/C | activity against the L1210 leukemia (in words) (L1210 leukemia): inactive against the L1210 leukemia | activity against the L1210 leukemia (in words) (L1210 leukemia; listed as N,N'-bis(benzenesulfonyl)hydrazine): inactivity

CN(NC(=O)c1ccccc1)C(=O)c1ccccc1 [N,N'-dibenzoyl-N-methylhydrazine, reference compound]
alkylating activity / absorbance (in words) [1]: negligible alkylating activity | absorbance at 540 nm (alkylating activity) [1]: 10 | maximum % T/C, L1210 leukemia (L1210 leukemia): 97 % T/C | activity against the L1210 leukemia (in words) (L1210 leukemia): inactive against the L1210 leukemia
